Usually melting point stands for the temperature, or range, at which the solid turns liquid.

Square brackets hold non-standard residues; d marks the D form. Peptide text beside a SMILES is read from it. * marks the point of attachment. NHPhenethyl = c1ccc(CCN*)cc1; PhAc = O=C(Cc1ccccc1)*

The target of data set [1] is T1, human BRS-3 (subtype 3 of the human bombesin receptor) (Homo sapiens, UniProt P32247).
T1 construct: expressed in transfected cells; host or cells: CHO-K1 cells, stably transfected with RD-HGA16 (human Gα16) and pcDNA3.1(-)-BRS-3; single-cell clone selected
T1 sequence (P32247 1-399): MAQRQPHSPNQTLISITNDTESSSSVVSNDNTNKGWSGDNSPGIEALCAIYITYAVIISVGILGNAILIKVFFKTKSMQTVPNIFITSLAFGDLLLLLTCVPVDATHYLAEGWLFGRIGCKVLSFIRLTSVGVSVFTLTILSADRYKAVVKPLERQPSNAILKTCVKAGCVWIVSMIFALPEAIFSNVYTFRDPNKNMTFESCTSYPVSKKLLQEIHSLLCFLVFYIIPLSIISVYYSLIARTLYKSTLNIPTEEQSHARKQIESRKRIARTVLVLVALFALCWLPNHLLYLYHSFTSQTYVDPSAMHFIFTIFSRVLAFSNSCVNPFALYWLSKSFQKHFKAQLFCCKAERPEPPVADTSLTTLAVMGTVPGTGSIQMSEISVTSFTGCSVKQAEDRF
Description: FLIPR test: agonistic activity on BRS-3 (Ca2+ fluorescence, Fluo4) in transfected CHO cells. The data set is classed as cell-based. Conditions: for EC50: CHO-K1 cells co-expressing human BRS-3 and human Gα16, 50% activation relative to maximum response of nonapeptide [D-Phe6,β-Ala11,Phe13,Nle14]Bn(6-14) (=100%). The source says:
For this, CHO cells (=“Chinese hamster ovary cells”) initially were transfected in known manner with an expression vector for the subtype 3 of the human bombesin receptor, i.e. BRS-3.
The cDNA of the human BRS-3 (nucleotide sequence under GenBank Accession No. L08893) was excised from the plasmid vector pGEM4 (from Promega, USA) using the restriction endonuclease EcoRI and was subcloned into the expression vector pcDNA3.1(−) (from Invitrogen, USA). CHO-K1 cells, which were already stably transfected with the expression vector RD-HGA16, which bears the cDNA sequence of the human Gα16 protein (nucleotide sequence under GenBank Accession No. M63904), were placed in sample plates with 24 sample wells (“24-well plate”) and incubated overnight under sterile conditions in an air-humidified incubator at 37° C. and 5% CO2 in F-12 medium plus Glutamax-I (from GibcoBRL, cat. No. 31765), to which 10%-strength foetal calf serum (inactivated at 56° C. for 1 h, from GibcoBRL), 25 μg/ml gentamicin (from GibcoBRL) and 0.2 mg/ml hygromycin B (from GibcoBRL) had been added. The next day, the cells were transfected with the BRS-3 expression vector by adding, using the “Effectene Transfection Reagent” (from Qiagen), 12 μl of a solution containing 0.3 μg/μl DNA of the expression vector per sample well. One day after transfection, the culture medium was replaced by selection medium. For this, the transfected cells, which each simultaneously express BRS-3 and the human Gα16 protein, were cultivated under sterile conditions at 37° C. and 5% CO2 in F-12 medium plus Glutamax-I (from GibcoBRL, cat. No. 31765), to which 10%-strength foetal calf serum (inactivated at 56° C. for 1 h, from GibcoBRL), 25 μg/ml gentamicin (from GibcoBRL), 0.2 mg/ml hygromycin B (from GibcoBRL) and 0.5 mg/ml geneticin (from GibcoBRL) had been added. To optimize the cell test, the cells with the highest receptor expression rate were selected. For this, the transfected cells were diluted 1:30,000 with the selection medium described above and were placed in sample plates with 96 sample wells (“96-well plate”). The cells were incubated overnight at 37° C. and 5% CO2, then those sample wells which contained only an individual cell were selected. These cells were first started in sample plates with 24 sample wells (“24-well plate”) and then cultivated in Costar plastic flasks (first 25 ml and then 225 ml). The BRS-3 receptor expression of the respective individual cell clone was estimated by determination of the EC50 value of the synthetic nonapeptide [D-Phe^6,β-Ala^11,Phe^13,Nle^14]Bn(6-14) as ligand (for performance of the test see below). The transfected cells were stored at −80° C. in aliquots of 1.8 ml medium each with 10% dimethyl sulfoxide (=DMSO) (cell concentration 1×10^6 cells/ml). For cultivation, a frozen aliquot was heated to 37° C., transferred into a Costar plastic flask (225 ml) and diluted with 50 ml of the selection medium described above. The medium was first changed once after 30 minutes' incubation. On each following first to third day, the medium was removed, the adherent cells (40-95% confluence) were washed with PBS Dulbecco's (from GibcoBRL) and detached from the bottom of the flask by a 2-minute treatment with trypsin-EDTA solution (from GibcoBRL) at 37° C. If the cells were to be cultivated further, they were transferred into a new plastic flask with fresh medium. If experiments were to be carried out with the cells, the cells were transferred into Costar sample plates with 96 sample wells, a clear baseplate and cover (“Costar 96-well assay plates”, from Coming), once the cell concentration had been set to 1.2×10^4 cells/ml.
BRS-3 is coupled via G-proteins to the Ca^2+-signal transduction path of the CHO cell. If an agonist binds to the receptor, the phospholipase C is activated via the G-protein, and then in turn catalyses the synthesis of water-soluble inositol phosphates. […]

Regarding `CC(NCc1ccc(Cl)cc1)C(=O)N[C@H](Cc1c[nH]c2ccccc12)C(=O)NCCc1ccccc1` (mixture of isomers) [Example 3, N1-phenethyl-(2R)-2-{1-[(4-chlorobenzyl)-amino]-ethylcarboxamido}-3-(1H-3-indolyl)-propanamide], the melting point lay in the range of 107 to 110 °C. The same molecule returned an EC50 in data set [1] of 4 nM.
Turning to `C[C@H](NC(=O)Cc1ccccc1)C(=O)N[C@H](Cc1c[nH]c2ccccc12)C(=O)NCCc1ccccc1` [Example 2, N1-phenethyl-(2R)-2-[(1S)-1-(benzylcarboxamido)-ethyl]-carboxamido-3-(1H-3-indolyl)-propanamide] (PhAc-Ala-[dW]-NHPhenethyl), the melting point was 205 to 207 °C. Besides, the EC50 in data set [1] worked out at 2.1 nM.
The molecule `O=C(Cc1cccnc1)NNC(=O)N[C@H](Cc1c[nH]c2ccccc12)C(=O)NCCc1ccccc1` [Example 4, N1-phenethyl-(2R)-2-{N′-[2-(3-pyridyl)-ethanoyl]-hydrazino}-carboxamido-3-(1H-3-indolyl)-propanamide] returned a melting point of 116 to 120 °C. This molecule also showed an EC50 in data set [1] of 1.4 nM.
For the molecule `O=C(NNCc1ccc(Cl)cc1)N[C@H](Cc1c[nH]c2ccccc12)C(=O)NCCc1ccccc1` [Example 5, N1-phenethyl-(2R)-2-[N′-(4-chlorobenzyl)-hydrazino]-carboxamido-3-(1H-3-indolyl)-propanamide], the melting point fell in the range of 75 to 80 °C. In addition, the EC50 in data set [1] amounted to 6 nM.
Consider `O=C(N/N=C/c1ccco1)N[C@H](Cc1c[nH]c2ccccc12)C(=O)NCCc1ccccc1` [Example 6, N1-phenethyl-(2R)-2-[N′-(furan-2-ylmethylene)-hydrazino]-carboxamido-3-(1H-3-indolyl)-propanamide], for which the melting point lay in the range of 100 to 101 °C. The EC50 in data set [1] is 1.5 nM.
`O=C(CN1CCC(Cc2ccccc2)CC1)N[C@H](Cc1c[nH]c2ccccc12)C(=O)NCCc1ccccc1` [Example 7, N1-phenethyl-(2R)-2-[(4-benzylpiperidino)-methyl]-carboxamido-3-(1H-3-indolyl)-propanamide] displayed a melting point of 73 to 75 °C. In data set [1], this molecule returned an EC50 of 30 nM.
With `NC(=O)CCC(NC(=O)Cc1cc2ccccc2[nH]1)C(=O)NC(Cc1c[nH]c2ccccc12)C(=O)NCCc1ccccc1` (centres unmarked) [Example 15], the EC50 in data set [1] came out at 57 nM.
Consider `CC(NC(=O)Cc1cccnc1)C(=O)NC(Cc1c[nH]c2ccccc12)C(=O)NCCc1ccccc1` (centres unmarked) [Example 19], for which the EC50 in data set [1] was 32 nM.
In the case of `O=C(CNCc1ccccc1)NC(Cc1c[nH]c2ccccc12)C(=O)NCCc1ccccc1` (centres unmarked) [Example 21], in data set [1], the EC50 is 21 nM.
`O=C(CNCc1ccc(Cl)cc1)NC(Cc1c[nH]c2ccccc12)C(=O)NCCc1ccccc1` (centres unmarked) [Example 22] yielded an EC50 in data set [1] of 2.9 nM.
For `O=C(CNCc1cccnc1)NC(Cc1c[nH]c2ccccc12)C(=O)NCCc1ccccc1` (centres unmarked) [Example 23], the EC50 in data set [1] is 21 nM.
On to `O=C(CNCCc1ccccc1)NC(Cc1c[nH]c2ccccc12)C(=O)NCCc1ccccc1` (centres unmarked) [Example 24], for which the EC50 in data set [1] is 17 nM.
With `CC(NCCc1ccccc1)C(=O)NC(Cc1c[nH]c2ccccc12)C(=O)NCCc1ccccc1` (centres unmarked) [Example 26], the EC50 in data set [1] was 25 nM.
The same measure, in the same setting: in the case of `O=C(Cc1ccccc1)NNC(=O)NC(Cc1c[nH]c2ccccc12)C(=O)NCCc1ccccc1` (centres unmarked) [Example 27] it was 3.1 nM.
`O=C(Cc1ccc(Cl)cc1)NNC(=O)NC(Cc1c[nH]c2ccccc12)C(=O)NCCc1ccccc1` (centres unmarked) [Example 28] gave an EC50 in data set [1] of 0.19 nM.
For `O=C(Cc1cc2ccccc2[nH]1)NNC(=O)NC(Cc1c[nH]c2ccccc12)C(=O)NCCc1ccccc1` (centres unmarked) [Example 30], in data set [1], the EC50 was determined as 2.2 nM.
On to “[D-Phe^6,β-Ala^11,Phe^13,Nle^14]Bn(6-14) [nonapeptide, reference compound]”, for which, in data set [1] (reference dilution series on each plate, adopted as 100% value), the “peptide concentration at which the maximum change in fluorescence had already been observed” value is about 16 µM.

The values above are taken from patent US7244743B2, “Non-peptidic BRS-3 agonists” (Solvay Pharmaceuticals GmbH, priority 2002, dated 2007).
